From article PMC8040948 (Journal of medicinal chemistry, 2020)
“Also recorded” adds a separate entry of the source. Like-named read-outs stand apart in the source and are kept apart here. Values belong to the compound of their own block, whether it stands above or below them.

Tests used:
[1] = system: 46 receptors, transporters, and ion channels; details: non-P2YR off-target screen; ref [8],[9]; cited from earlier work
[2] = system: ASP/OVA-sensitized mice; experiment: Ovalbumin/Aspergillus protease mouse model of allergic asthma, BALF cell counts; details: 10 mg/kg ip 30 min prior to allergen challenge, BALF 2 days post-challenge
[3] = system: CCI of the sciatic nerve in adult male ICR mice; details: mouse, 10 μmol/kg, ip; ref Mufti et al.[12]; cited from earlier work
[4] = biological target: T1, hP2Y14R (Homo sapiens, UniProt Q15391); assay type: binding; details: for fold lower hP2Y14R affinity than 2: relative to reference triazole 2; for fold lower hP2Y14R affinity than 22: relative to reference 22
T1 sequence (Q15391 1-338): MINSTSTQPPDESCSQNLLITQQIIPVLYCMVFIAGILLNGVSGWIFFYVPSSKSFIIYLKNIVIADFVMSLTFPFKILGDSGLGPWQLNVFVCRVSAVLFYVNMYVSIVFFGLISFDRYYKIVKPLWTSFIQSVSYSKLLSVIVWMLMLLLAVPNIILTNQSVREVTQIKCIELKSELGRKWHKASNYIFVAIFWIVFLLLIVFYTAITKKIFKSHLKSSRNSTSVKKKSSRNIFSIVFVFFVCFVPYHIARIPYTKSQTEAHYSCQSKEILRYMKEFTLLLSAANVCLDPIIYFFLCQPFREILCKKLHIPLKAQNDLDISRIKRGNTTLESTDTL

[5] = Plasma protein binding in three species
[6] = biological target: CB1 cannabinoid receptor (Homo sapiens, UniProt P21554); experiment: PDSP functional agonist/antagonist assay, CB1; assay type: cell-based
Chain of CB1 cannabinoid receptor (P21554 whole entry): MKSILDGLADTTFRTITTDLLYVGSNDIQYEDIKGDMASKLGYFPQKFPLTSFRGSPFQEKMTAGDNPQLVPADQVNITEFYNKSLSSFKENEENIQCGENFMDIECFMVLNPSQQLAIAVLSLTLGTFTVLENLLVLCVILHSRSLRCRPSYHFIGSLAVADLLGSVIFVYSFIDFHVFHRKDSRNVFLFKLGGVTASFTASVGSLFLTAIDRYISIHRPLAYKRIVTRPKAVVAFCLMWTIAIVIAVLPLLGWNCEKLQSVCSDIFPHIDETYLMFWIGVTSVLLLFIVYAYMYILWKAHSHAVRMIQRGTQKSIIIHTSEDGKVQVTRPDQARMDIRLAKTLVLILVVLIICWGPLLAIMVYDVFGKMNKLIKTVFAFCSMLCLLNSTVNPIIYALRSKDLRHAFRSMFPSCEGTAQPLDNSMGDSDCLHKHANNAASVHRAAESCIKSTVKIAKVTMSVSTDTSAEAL

[7] = biological target: CB2 cannabinoid receptor (Homo sapiens, UniProt P34972); experiment: PDSP functional agonist/antagonist assay, CB2; assay type: cell-based
Chain of CB2 cannabinoid receptor (P34972 whole entry): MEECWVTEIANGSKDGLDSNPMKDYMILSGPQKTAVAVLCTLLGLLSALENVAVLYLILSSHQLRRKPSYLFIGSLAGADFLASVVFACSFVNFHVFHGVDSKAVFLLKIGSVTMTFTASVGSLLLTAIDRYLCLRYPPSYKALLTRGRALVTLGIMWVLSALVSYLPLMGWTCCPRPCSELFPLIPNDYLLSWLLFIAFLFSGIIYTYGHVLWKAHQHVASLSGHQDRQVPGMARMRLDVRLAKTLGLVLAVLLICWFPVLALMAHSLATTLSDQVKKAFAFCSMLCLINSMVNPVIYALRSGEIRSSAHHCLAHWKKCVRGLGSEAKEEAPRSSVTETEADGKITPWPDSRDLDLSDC

SMILES: CCCN1CCC(c2ccc(-c3cc(C(=O)O)cc4cc(-c5ccc(C(F)(F)F)cc5)ccc34)cc2)CC1 [Compound 6b, 4-(4-(1-Propylpiperidin-4-yl)phenyl)-7-(4-(trifluoromethyl)phenyl)-2-naphthoic Acid]
off-target interactions [1]: no detected off-target interactions

SMILES: C#CCCCCN1CCC(c2ccc(-c3cc(C(=O)O)cc4cc(-c5ccc(C(F)(F)F)cc5)ccc34)cc2)CC1 [Compound 7a, 4-(4-(1-(Hex-5-yn-1-yl)piperidin-4-yl)phenyl)-7-(4-(trifluoromethyl)phenyl)-2-naphthoic Acid]
off-target interactions [1]: no detected off-target interactions | effect on eosinophilic airway inflammation [2]: protected; also recorded: highest potency of reducing eosinophil infiltration

SMILES: CC(=O)N1CCC(c2ccc(-c3cc(C(=O)O)cc4cc(-c5ccc(C(F)(F)F)cc5)ccc34)cc2)CC1 [Compound 8, 4-(4-(1-(Acetyl)piperidin-4-yl)phenyl)-7-(4-(trifluoromethyl)phenyl)-2-naphthoic Acid]
efficacy in CCI model [3]: effective

SMILES: O=C(O)c1cc(-c2ccc(C34CCNCC3C4)cc2)cc(-n2cc(-c3ccc(C(F)(F)F)cc3)nn2)c1 (centres unmarked) [Compound 19, 4′-(3-Azabicyclo[4.1.0]heptan-6-yl)-5-(4-(4-(trifluoromethyl)phenyl)-1H-1,2,3-triazol-1-yl)-[1,1′-biphenyl]-3-carboxylic Acid]
fold lower hP2Y14R affinity than 2 [4]: 11 fold

SMILES: C[N+]12CCC(c3ccc(-c4cc(C(=O)O)cc5cc(-c6ccc(C(F)(F)F)cc6)ccc45)cc3)(CC1)CC2 [Compound 21, 4-(4-(1-Methylquinuclidin-1-ium-4-yl)phenyl)-7-(4-(trifluoromethyl)phenyl)-2-naphthoate]
plasma protein binding [5]: high

SMILES: NCCCNC(=O)c1ccc(-c2cc(C(=O)O)cc(-n3cc(-c4ccc(C(F)(F)F)cc4)nn3)c2)s1 [Compound 23, reference compound]
plasma protein binding [5]: high | effect on eosinophilic airway inflammation [2]: protected

More lines, now with the values ahead:

fold lower hP2Y14R affinity than 2 [4]: 20 fold
SMILES: O=C(O)c1cc(-c2ccc(C34CCNCC3C4(F)F)cc2)cc(-n2cc(-c3ccc(C(F)(F)F)cc3)nn2)c1 (centres unmarked) [Compound 20, 4′-(7,7-Difluoro-3-azabicyclo[4.1.0]heptan-6-yl)-5-(4-(4-(trifluoromethyl)phenyl)-1H-1,2,3-triazol-1-yl)-[1,1′-biphenyl]-3-carboxylic Acid]

fold lower hP2Y14R affinity than 22 [4]: 6.2 fold
SMILES: NC(=O)c1ccc(-c2cc(C(=O)O)cc(-c3cn(-c4ccc(C(F)(F)F)cc4)nn3)c2)cc1 [Compound 24, 4′-Carbamoyl-5-(1-(4-(trifluoromethyl)phenyl)-1H-1,2,3-triazol-4-yl)-[1,1′-biphenyl]-3-carboxylic Acid]

IC50 [6]: > 10 µM | IC50 [7]: > 10 µM | plasma protein binding [5]: high
SMILES: O=C(O)c1cc(-c2ccc(C3CCNCC3)cc2)cc(-c2cn(-c3ccc(C(F)(F)F)cc3)nn2)c1 [Compound 25, 4′-(Piperidin-4-yl)-5-(1-(4-(trifluoromethyl)phenyl)-1H-1,2,3-triazol-4-yl)-[1,1′-biphenyl]-3-carboxylic Acid]

fold lower hP2Y14R affinity than 22 [4]: 11 fold
SMILES: NC(=O)c1ccc(-c2cc(NC(=O)c3ccc(C(F)(F)F)cc3)cc(C(=O)O)c2)cc1 [Compound 27, 4′-Carbamoyl-5-(4-(trifluoromethyl)benzamido)-[1,1′-biphenyl]-3-carboxylic Acid]

IC50 ([4]; IC50 (μM), Table 1B, cells that print only footnote mark c): > 100 µM | IC50 ([4]; IC50 at hP2Y14R): > 100 µM
SMILES: O=C(O)c1cc(NC(=O)C23C4C5C2C2C3C4C52CO)cc(-c2ccc(C3CCNCC3)cc2)c1 (centres unmarked) [Compound 28, 5-(4-(Hydroxymethyl)cubane-1-carboxamido)-4′-(piperidin-4-yl)-[1,1′-biphenyl]-3-carboxylic Acid]

IC50 ([4]; IC50 at hP2Y14R): > 100 µM
SMILES: O=C(O)c1cc(-c2ccc(C3CCNCC3)cc2)c2nc(-c3ccc(C(F)(F)F)cc3)[nH]c2c1 [Compound 35, 4-(4-(Piperidin-4-yl)phenyl)-2-(4-(trifluoromethyl)phenyl)-1H-benzo[d]imidazole-6-carboxylic Acid]
